# Assay results from patent publication US20010018416A1, “COMPOSITIONS AND METHODS FOR TREATING HEPATITIS-C” (priority 1997, published 2001).
# Experiments:
# hepatitis-C = test system: hepatitis-C
# Method: Twelve patients in the active stage of hepatitis-C were selected for this study. The study group consisted of eight females and four males between 36 and 57 years of age. […] The control powder contained vegetable oil, corn syrup solids, and lactose. Quality control (to check for product identity and purity) was done by HPLC through comparisons with those obtained from reference samples from Sigma Corp, St Louis, Mo. The GMDP powder was diluted with 10 ml sterile distilled water. The daily GMDP dosage ranged from 0.1-0.5 mg/kg of the patient's body weight for blastolysine 80-120 mg/kg of body weight. Statistical analysis were done with Epi-Info Statistical Package (Center for Disease Control and Prevention, Atlanta, Ga.) with two way comparison by the Fischer's exact test (two tailed). Eleven patients were orally administered GMDP at dosage of […] daily in a water solution for one or two months. One patient with 44000×1000 viral load and early liver cirrhosis was treated for one year. GMDP at dosage of 0.1-0.5 mg/kg daily was administered to 11 patients.
# [1] = test system: human CD4+ lymphocytes taken from AIDS patient; assay: LDH assay of the inhibition of Fas antigen mediated apoptosis in vitro; assay type: cell-based; conditions: LDH release 16 h after anti-Fas antibodies, FIG. 3
# Method: The following cell lines were used for this assay: A549 (human lung carcinoma cells), A431 (human […]), L929 (mouse […]), human CD4+ lymphocytes taken from AIDS patient. All cells are commercially available from ATCC. They were maintained in DME medium supplemented with 10% FCS and glutamine in CO2 incubator. Lactate dehydrogenase (LDH) assay Cells were seeded into 35 mm Petri dishes and grown up to 70% confluency. Then they were treated with human recombinant antibodies against Fas antigen (gift from […] Co.) in the concentration indicated in the figures. In cases where the cells were not spontaneously sensitive to Fas ligand induced cytolysis, cycloheximide (CHX), a powerful blocker of the protein synthesis, which sensitizes the cells to anti Fas antibodies action, was used in concentration of 25 μg/ml. Sixteen hours after treatment, 20 μl samples of the cultured supernatants were removed and assayed for LDH release by the Cytotox 96 assay (Promega Biotech., Madison, Wis.)in accordance with the manufacturer's instructions. This methodology is based upon the fact that when cells are dying they are releasing LDH. […] These samples were assayed in triplicate on an EL340 Microplate reader (Bic) Tech Instruments Inc.) at 490 nm wave length. The average of these three readings was plated on the graphs (FIGS. 1, 2, 3 and 4).
# [2] = test system: A 549 cells (human small cell lung carcinoma); assay: DNA fragmentation test (LDH released by dying cells measured by optic density) after TNF-α; assay type: cell-based; conditions: A549; TNF-α 10 nanograms/ml; GMDP 1 and 2 μg/ml; 8 hours
# Method: The LDH analysis procedure is described above. A 549 cells (human small cell lung carcinoma) were utilized for the DNA fragmentation test and treated with GMDP 1 ug/ml and with GMDP 2 ug/ml for 2 hours and then treated with human TNF-α (Sigma Corp., St. Louis, Mo.). FIGS. 8 and 9 are plots of the optical density measurements of two different scans each with six samples utilizing the DNA fragmentation procedure. […] TNF-α levels were 10 nanograms/ml for all samples, while samples 1-4 contained no GMDP, sample 5 contained 1 μg/ml GMDP and sample 6 contained 2 μg/ml GMDP. Sample 1 was analyzed after 0 hours, sample 2 analyzed after 2 hours, sample 3 analyzed after 4 hours, while samples 4, 5, and 6 were analyzed after 8 hours. Accordingly, only samples 5 and 6 from each scan measure cell protection after 8 hours. […] In other words, the higher purity GMDP drastically increases cell protection and antiapoptotic activity.
SMILES,reduction in bilirubin concentration (hepatitis-C; 2 patients with elevated level),decrease of LDH and GGTP activity (hepatitis-C; 7 patients who had elevated level),effect on AST and APT activity (hepatitis-C; 7 patients who had elevated level of these enzymes),"fatigue and nausea (hepatitis-C; after first week, all patients who had these symptoms)","serum HPC RNA test, reduction of viral load (hepatitis-C; after the first three weeks of treatment, all patients)","overall clinical conditions (hepatitis-C; all patients treated, follow up period)","toxic effects (hepatitis-C; human, in vivo, po)",free iron test (hepatitis-C; one patient with high levels of free iron),effect on alkaline phosphates activity (hepatitis-C; one patient with previously elevated level),"follow-up liver biopsy, pathology examination (hepatitis-C; one patient, end of one year treatment)",follow-up liver biopsy (hepatitis-C; two patients with diagnosed mild necrosis and fibrosis),maximum inhibition of Fas Ag antibodies mediated cell lysis (reduction) [1] [%],optical density relative to cells exposed to GMDP of about 97.3% purity [2]
"CC(=O)NC1C(OC2C(CO)OC(O)C(NC(C)=O)C2OC(C)C(=O)NC(C)C(=O)NC(CCC(=O)O)C(N)=O)OC(CO)C(O)C1O [GMDP, N-acetyl-D-glucosaminyl-(β1-4)-N-acetylmuramyl-L-alanyl-D-isoglutamine]",19%(3),34% (6),beneficial effect,completely subsided,two-three fold reduction,improved,No patients experienced toxic effects,full normalization,Lowering effect,no sign of previous necrosis and cirrhosis,no necrosis or fibrotic change was detectable,72,
"CC(=O)NC1C(OC2C(CO)OC(O)C(NC(C)=O)C2OC(C)C(=O)NC(C)C(=O)NC(CCC(=O)O)C(N)=O)OC(CO)C(O)C1O [GMDP of about 98.3% purity, N-acetyl-D-glucosaminyl-(β1-4)-N-acetylmuramyl-L-alanyl-D-isoglutamine]",,,,,,,,,,,,,less than ½
